# Measurements taken from the supplement of paper PMC12317010.
# Where a name gives a salt, the structure may show the parent alone.
# Assay: collision cross section in nitrogen (drift tube, single-field); higher = larger gas-phase ion size
# [1] = ion type: [M+H], ion source: APCI, ion mode: Positive
# [2] = ion type: [M+H], ion source: ESI, ion mode: Positive
# [3] = ion type: [M-H], ion source: ESI, ion mode: Negative
# [4] = ion type: [M+Na], ion source: ESI, ion mode: Positive
# [5] = ion type: [M+], ion source: APCI, ion mode: Positive
# 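Note: chemical standards at 10 µM analysed by drift tube IMS-QTOF MS in about 3.95 torr nitrogen, mean of duplicate injections differing ≤1%, mass error below 10 ppm.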
collision cross section in nitrogen [3] [Å²],Structure (SMILES),other results
,"Cc1cc(C)nc(N)n1 [2-Amino-4,6-dimethylpyrimidine]",collision cross section in nitrogen [1]: 123.7 Å²; collision cross section in nitrogen [2]: 123 Å²
,"COc1nc(C)nc(N)n1 [2-Amino-4-methoxy-6-methyl-1,3,5-triazine]",collision cross section in nitrogen [1]: 122.7 Å²; collision cross section in nitrogen [2]: 123.4 Å²
135.3,"Nc1nnc(-c2ccc([N+](=O)[O-])o2)o1 [2-Amino-5-(5-nitro-2-furyl)-1,3,4-oxadiazole]",
137.9,Cc1ccc(N)c(S(=O)(=O)O)c1 [2-Amino-5-methylbenzenesulfonic acid],
125.3,Nc1ccc([N+](=O)[O-])cc1O [2-Amino-5-nitrophenol],
130.1,Nc1cc([N+](=O)[O-])cc(Cl)c1O [2-Amino-6-chloro-4-nitrophenol],
131.3,Nc1nc2ccc([N+](=O)[O-])cc2s1 [2-Amino-6-nitrobenzothiazole],collision cross section in nitrogen [1]: 144.1 Å²; collision cross section in nitrogen [2]: 143.6 Å²
140.8,CC(C)NC(=O)c1ccccc1N [2-Amino-N-(1-methylethyl)benzamide],
,CN(C1CCCCC1)S(=O)(=O)c1ccccc1N [2-Amino-N-cyclohexyl-N-methylbenzenesulfonamide],collision cross section in nitrogen [4]: 173.9 Å²
144.9,Nc1ccc2c(c1)C(=O)c1ccccc1C2=O [2-Aminoanthraquinone],
147.3,"Nc1cc(S(=O)(=O)O)ccc1S(=O)(=O)O [2-Aminobenzene-1,4-disulfonic acid]",
123.5,Nc1nc2ccccc2[nH]1 [2-Aminobenzimidazole],collision cross section in nitrogen [1]: 126.2 Å²; collision cross section in nitrogen [2]: 126.8 Å²; collision cross section in nitrogen [5]: 123.9 Å²
,"CCCCCCCCOC(=O)/C=C\C(=O)OCCCCCCCC [2-Butenedioic acid (2Z)-, dioctyl ester]",collision cross section in nitrogen [4]: 206.4 Å²
,"Nc1ccc(N)c(Cl)c1 [2-Chloro-1,4-diaminobenzene sulfate (1:1)]",collision cross section in nitrogen [2]: 131.4 Å²
159.9,O=C(Nc1ccccc1)c1cc([N+](=O)[O-])ccc1Cl [2-Chloro-5-nitro-N-phenylbenzamide],
125.5,Nc1cc([N+](=O)[O-])ccc1Cl [2-Chloro-5-nitroaniline],
146,Cc1cc(Br)ccc1NC(=O)CCl [2-Chloro-N-(2-methyl-4-bromophenyl)acetamide],
133.5,NS(=O)(=O)c1ccccc1Cl [2-Chlorobenzenesulfonamide],
130.5,CCC(C)(CC)C(=O)O [2-Ethyl-2-methylbutyric acid],
,CCc1nc(C)c[nH]1 [2-Ethyl-4-methyl-1H-imidazole],collision cross section in nitrogen [1]: 120.3 Å²; collision cross section in nitrogen [2]: 121.2 Å²
127.6,CCC(CC)C(=O)O [2-Ethylbutyric acid],

collision cross section in nitrogen [3] [Å²],Structure (SMILES),other results
138.1,CCCCC(CC)C(=O)O (stereo unspecified) [2-Ethylhexanoic acid],
150.7,CCCCC(CC)COP(=O)(O)O (stereo unspecified) [2-Ethylhexyl dihydrogen phosphate],
,CCCCC(CC)COP(=O)(Oc1ccccc1)Oc1ccccc1 (stereo unspecified) [2-Ethylhexyl diphenyl phosphate],collision cross section in nitrogen [4]: 200.9 Å²
169.9,CCCCC(CC)COC(=O)c1ccc(O)cc1 (stereo unspecified) [2-Ethylhexyl p-hydroxybenzoate],
124.3,CCc1ccccc1O [2-Ethylphenol],
176.7,CCCCCCCCC(CCCCCC)C(=O)O (stereo unspecified) [2-Hexyldecanoic acid],
,NNc1nc(-c2ccc(N)cc2)cs1 [2-Hydrazino-4-(4-aminophenyl) thiazole],collision cross section in nitrogen [2]: 146.2 Å²
149,NNc1nc(-c2ccc([N+](=O)[O-])cc2)cs1 [2-Hydrazino-4-(4-nitrophenyl)thiazole],
152.9,COc1ccc(C(=O)c2ccccc2)c(O)c1 [2-Hydroxy-4-methoxybenzophenone],collision cross section in nitrogen [1]: 147.3 Å²
130.2,CC(=O)Nc1ccccc1O [2-Hydroxyacetanilide],
143.4,O=C(c1ccccc1)c1ccccc1O [2-Hydroxybenzophenone],
141.5,Oc1ccc2c(c1)Cc1ccccc1-2 [2-Hydroxyfluorene],
135.5,Cc1cc(=O)nc(C(C)C)[nH]1 [2-Isopropyl-6-methyl-4-pyrimidone],collision cross section in nitrogen [1]: 133.9 Å²; collision cross section in nitrogen [2]: 132.5 Å²; collision cross section in nitrogen [4]: 146.4 Å²
129.3,CC(C)c1ccccc1O [2-Isopropylphenol],
,CC(C)c1ccc2sc3ccccc3c(=O)c2c1 [2-Isopropylthioxanthone],collision cross section in nitrogen [1]: 155.5 Å²; collision cross section in nitrogen [2]: 156.4 Å²
128.2,Sc1nc2ccccc2s1 [2-Mercaptobenzothiazole],
,COc1ccccc1C=O [2-Methoxybenzaldehyde],collision cross section in nitrogen [5]: 124.1 Å²
123.6,"Cc1c(O)cccc1O [2-Methyl-1,3-benzenediol]",
,Cn1sccc1=O [2-Methyl-3(2H)-isothiazolone],collision cross section in nitrogen [1]: 117.1 Å²; collision cross section in nitrogen [2]: 117.9 Å²
,Cn1sccc1=O [2-Methyl-3-isothiazolone hydrochloride],collision cross section in nitrogen [2]: 118.5 Å²
,CSc1ccc(C(=O)C(C)(C)N2CCOCC2)cc1 [2-Methyl-4'-(methylthio)-2-morpholinopropiophenone],collision cross section in nitrogen [1]: 166.4 Å²; collision cross section in nitrogen [2]: 166.7 Å²

collision cross section in nitrogen [3] [Å²],Structure (SMILES),other results
208,"CCCCCCCCSCc1cc(C)c(O)c(CSCCCCCCCC)c1 [2-Methyl-4,6-bis[(octylthio)methyl]phenol]",
145.3,Cc1ccc2c(c1)C(=O)c1ccccc1C2=O [2-Methylanthraquinone],
131.9,Cc1ccccc1S(=O)(=O)O [2-Methylbenzenesulfonic acid],
112.8,Cc1ncc[nH]1 [2-Methylimidazole],
,Cc1ccc2ccccc2n1 [2-Methylquinoline],collision cross section in nitrogen [1]: 125.2 Å²; collision cross section in nitrogen [2]: 126.2 Å²
,CCCCCCCCCCCCCC(=O)OC(CO)CO [2-Myristoyl glycerol],collision cross section in nitrogen [4]: 183.7 Å²
128.7,Oc1ccc2ccccc2c1 [2-Naphthalenol],
151.2,O=C(O)COc1ccc2ccccc2c1 [2-Naphthoxyacetic acid],
141.1,O=[N+]([O-])c1ccc2c(c1)Cc1ccccc1-2 [2-Nitrofluorene],
,NC(=O)CN1CCCC1=O [2-Oxo-1-Pyrrolidineacetamide],collision cross section in nitrogen [4]: 136.8 Å²
142.6,c1ccc(-c2nc3ccccc3[nH]2)cc1 [2-Phenylbenzimidazole],collision cross section in nitrogen [1]: 142.8 Å²; collision cross section in nitrogen [2]: 143 Å²
,OCCC1CCCCN1 (stereo unspecified) [2-Piperidineethanol],collision cross section in nitrogen [1]: 125.7 Å²; collision cross section in nitrogen [2]: 126.6 Å²
119.1,"C=CCS(=O)(=O)O [2-Propene-1-sulfonic acid, sodium salt]",
129.6,CCCc1ccccc1O [2-Propylphenol],
,CCCCOCCOCCOCCO [2-[2-(2-Butoxyethoxy)ethoxy]ethanol],collision cross section in nitrogen [4]: 150.9 Å²
,COCCOCCOCCO [2-[2-(2-Methoxyethoxy)ethoxy]ethanol],collision cross section in nitrogen [4]: 135.6 Å²
,CCCOCCOCCOCCO [2-[2-(2-Propoxyethoxy)ethoxy]ethanol],collision cross section in nitrogen [4]: 144.4 Å²
,CCCCCCOCCOCCO [2-[2-(Hexyloxy)ethoxy]ethanol],collision cross section in nitrogen [4]: 151.8 Å²
179.8,CCN(CC)c1ccc(C(=O)c2ccccc2C(=O)O)c(O)c1 [2-[4-(Diethylamino)-2-hydroxybenzoyl]benzoic acid],collision cross section in nitrogen [1]: 177.2 Å²; collision cross section in nitrogen [2]: 177.1 Å²; collision cross section in nitrogen [4]: 187.1 Å²
,CN(C)CCOCCN(C)CCO [2-[{2-[2-(Dimethylamino)ethoxy]ethyl}(methyl)amino]ethanol],collision cross section in nitrogen [1]: 138.5 Å²; collision cross section in nitrogen [2]: 138.3 Å²; collision cross section in nitrogen [4]: 144 Å²

Structure (SMILES),collision cross section in nitrogen [3] [Å²],other results
Nc1ccc(Cl)cc1C(=O)c1ccccc1 [2-Amino-5-chlorobenzophenone],150.4,
N#Cc1cc([N+](=O)[O-])ccc1N [2-Amino-5-nitrobenzonitrile],125.1,
N#Cc1ccccc1N [2-Aminobenzonitrile],118,
NCCOS(=O)(=O)O [2-Aminoethyl hydrogen sulfate],121.6,
Oc1ccccc1Br [2-Bromophenol],120.2,
Nc1ccc([N+](=O)[O-])cc1Cl [2-Chloro-4-nitroaniline],126.1,
Oc1ccccc1I [2-Iodophenol],121.9,
"CC(C)CC(=O)C1C(=O)c2ccccc2C1=O [2-Isovaleryl-1,3-indanedione]",154.2,
S=c1[nH]c2ccccc2[nH]1 [2-Mercaptobenzimidazole],127.1,collision cross section in nitrogen [1]: 128 Å²; collision cross section in nitrogen [2]: 127.8 Å²; collision cross section in nitrogen [5]: 125.7 Å²
Nc1ccccc1[N+](=O)[O-] [2-Nitrobenzenamine],121.6,
O=[N+]([O-])c1ccccc1O [2-Nitrophenol],121.2,
Oc1ccccc1-c1ccccc1 [2-Phenylphenol],136.4,
